Test results taken from patent US20100173995A1, “Use of PPAR-alpha activator as inflammatory skin disease-treating agent and method for treating skin diseases using the same” (Neopharm Co., Ltd., priority 2009, published 2010).

Legend:
rats = experiment: Single dose oral toxicity test using rats; format: in vivo, rat
Protocol: (§1) In order to evaluate the safety of the PPAR-α activator compound according to the present invention for application as a skin external preparation, an animal toxicity test and a human patch test were performed.
(§2) To perform this evaluation, a single dose oral toxicity test using rats, a skin irritation test using rabbits, a skin sensitization test using guinea pigs and an ophthalmic mucous membrane irritation test using rabbits were performed as toxicity tests for PC-9S in animals. Those tests were performed based on “Toxicity Test Standards for Pharmaceutical Products” disclosed by the Korea Food & Drug Administration. Additionally, a human patch test for PC-9S was carried out on 30 subjects (average age: 24.1). […] However, when evaluating the overall results obtained from the other toxicity tests and the human patch test, it was considered that the pseudo-ceramide compound would not pose a safety problem.

rabbits [1] = experiment: Skin irritation test using rabbits; format: in vivo, rabbit
Protocol: as §1, §2

guinea pigs = experiment: Skin sensitization test using guinea pigs; format: in vivo, guinea pig
Protocol: as §1, §2

rabbits [2] = experiment: Ophthalmic mucous membrane irritation test using rabbits; format: in vivo, rabbit
Protocol: as §1, §2

human skin = experiment: Human patch test; format: in vivo; settings: 30 subjects
Protocol: as §1, §2

With `CCCCCCCCCCCCCCCCCC(=O)C(CCCCCCCCCCCCCCCC)C(=O)NCCO` (stereo not drawn) [PC-9S] the “Single dose oral toxicity test (toxicity test) result” value (rats) was “No irritation”, the “Skin irritation test using rabbits result” value (rabbits [1]) was “slight skin irritation” and the “Skin sensitization test using guinea pigs result” value (guinea pigs) was “No irritation”. The “Ophthalmic mucous membrane irritation test using rabbits result” value (rabbits [2]) was “No irritation”, the “Human patch test result” value (human skin; 1% PC-9S) was “No irritation” and the “Human patch test result” value (human skin; 10% PC-9S) was “No irritation”.
